Laboratory results taken from patent publication US20260158023A1, “APOMORPHINE FOR TREATING OR IMPROVING POST-TRAUMATIC STRESS DISORDER” (priority 2024, published 2026).

Columns and labels:
[1] = test system: one-time persistent stress post-traumatic stress model; assay: open field test in one-time persistent stress model; type: in vivo, mice; settings: after apomorphine administration
Description: (§1) In order to strengthen the fear response to safety stimuli, a one-time persistent stress was introduced to apply stronger stress. The one-time persistent stress consists of the existing 2-hour restraint stress, 10-minute forced swim test, and 5-minute ether anesthesia.
The level of anxiety symptoms can be determined through the time spent in the center in the open field test.

[2] = test system: restraint stress post-traumatic stress model (C57BL/6 mice); assay: stimulus identification fear conditioning experiment in restraint stress model of post-traumatic stress disorder; type: in vivo; settings: administered 30 minutes before the fear test
Procedure: (§2) C57BL/6 mice were stressed by restricting movement for 2 hours (restraint stress), and one week later, two sounds were simultaneously applied: one with sound-only (safety stimuli) and the other with sound paired with electrical stimulation (fear stimuli). The next day, generalization, the freezing level to the safety stimulus (CS-), which is one of the indicators of post-traumatic stress disorder, was measured through fear responses to the two sounds (stimulus identification fear conditioning experiment).
To confirm the effect of apomorphine on the post-traumatic stress model according to concentration, apomorphine of different concentrations was administered 30 minutes before the fear test.

[3] = test system: mice lacking drd4 receptors (drd4 KO); assay: stimulus identification fear conditioning experiment in one-time persistent stress model, mice lacking drd4 receptors (drd4 KO); type: in vivo; settings: as in Example 2.3
[4] = test system: one-time persistent stress post-traumatic stress model; assay: elevated plus maze test in one-time persistent stress model; type: in vivo, mice; settings: after apomorphine administration
[5] = test system: normal mice (drd4 WT); assay: stimulus identification fear conditioning experiment in one-time persistent stress model, normal mice (drd4 WT); type: in vivo; settings: as in Example 2.3
[6] = test system: one-time persistent stress post-traumatic stress model; assay: stimulus identification fear conditioning experiment in one-time persistent stress model; type: in vivo, mice; settings: for CS-freezing: one week after one-time persistent stress; for fear response to safety stimuli: one-time persistent stress model
Procedure: as §2, §1
We observed the fear response in a stimulus identification fear conditioning experiment when apomorphine (1 ug/kg, 3 ug/kg) was administered one week after a one-time persistent stress, which is a more powerful post-traumatic stress model.
In order to compare the effect of apomorphine with that of the existing treatment, paroxetine, a stimulus identification fear conditioning experiment was conducted after stress was applied under the same conditions.

Row | Structure (SMILES) | mean distance in the open field test (overall walking function) [1] | time spent in the center in the open field test [1] | CS-freezing (freezing level to the safety stimulus) ([2]; 1 ug/kg) | CS-freezing (freezing level to the safety stimulus) ([2]; 3 ug/kg) | fear response between apomorphine administration and vehicle administration [3] | time spent in the open arm in the elevated plus maze test [4] | fear response compared to vehicle administration [5] | CS-freezing ([6]; 1 ug/kg) | CS-freezing ([6]; 3 ug/kg) | fear response to safety stimuli ([6]; 5 ug/kg) | fear response to safety stimuli ([6]; all concentrations: 150 ug/kg, 300 ug/kg and 500 ug/kg)
1 | CN1CCc2cccc3c2[C@H]1Cc1ccc(O)c(O)c1-3 [apomorphine, Apomorphine] | no difference | significantly increased | decreased | did not change | no difference | significantly increased | decreased | decreased | did not change | – | –
2 | Fc1ccc([C@@H]2CCNC[C@H]2COc2ccc3c(c2)OCO3)cc1 [paroxetine] | – | – | – | – | – | – | – | – | – | no significant difference | reduced
